Source: paper PMC2813863, “In Vivo Evaluation of α7 Nicotinic Acetylcholine Receptor Agonists [^11C]A-582941 and [^11C]A-844606 in Mice and Conscious Monkeys” (PLoS ONE, 2010)
Where “and” joins values, the source holds several entries; their conditions need not be identical. Equal entries are not always repeated. Where two headings read alike, the source gives them in different places.

What was measured:
[1] = mice
Protocol: Each tracer (180 MBq/3.0–13.4 nmol) was intravenously injected into mice, and 15 and 30 min later the animals were killed by cervical dislocation (n = 3). Blood was removed by heart puncture using a heparinized syringe, and the brain was removed. The blood was centrifuged at 7,000×g for 1 min at 4°C to obtain plasma, which was denatured with 5 volume of CH3CN. The mixture was centrifuged under the same conditions, and the precipitate was re-suspended in 0.5 ml of CH3CN, followed by centrifugation. This procedure was repeated three times. The cerebral cortex (approximately 200 mg) was homogenized in 1.0 ml of 50% CH3CN. The homogenate was then treated as described above. The combined supernatant was diluted with 2 volumes of water and then analyzed by HPLC with a radioactivity detector (FLO-ONE 150TR; Packard Instrument, Meriden, CT). A Radial-Pak C18 column equipped with an RCM 8×10 module (8 mm ×100 mm; Waters, Milford, MA) was used with a mixture of CH3CN/H2O/triethyl amine (40/60/0.1 for [^11C]A-582941 and 70/30/0.1 for [^11C]A-844606, v/v/v) as the mobile phase at a flow rate of 2 ml/min. The elution profile was monitored with a radioactivity detector. The retention times of [^11C]A-582941 and [^11C]A-844606 were 6.4 and 8.8 min, respectively. The recovery in the eluate of the injected radioactivity was essentially quantitative.

α7 nAChRs = α7 nAChRs (Macaca mulatta, UniProt Q866A2); settings: rhesus monkey, in vivo
Text: Four young-adult male rhesus monkeys (Macaca mulatta) weighing from 4 to 6 kg were used for PET measurements. The monkeys were trained for the protocol as described previously. The magnetic resonance images (MRI) of all monkeys were obtained with a Toshiba MRT-50A/II (0.5T) under anesthesia with pentobarbital. The stereotactic coordinates of PET and MRI were adjusted based on the orbitomeatal (OM) line with monkeys secured in a specially designed head holder. At least 1 month before the PET study, an acrylic plate, with which the monkey was fixed to the monkey chair, was attached to the head under pentobarbital anesthesia as described previously.
PET data were collected on a high-resolution PET scanner (SHR-7700; Hamamatsu Photonics K.K., Hamamatsu, Japan). The camera consists of 16 detector rings and acquires 20 slices at a center-to-center interval of 3.6 mm with a transaxial resolution of 2.6 mm full width at half maximum. After an overnight fast, the monkey was fixed to the monkey chair with stereotactic coordinates aligned parallel to the OM line. A cannula was implanted in the posterior tibial vein, and [^11C]A-582941 or [^11C]A-844606 (1152–1336 MBq/26.8–63.1 nmol) was injected into the monkey through the venous cannula. PET images were acquired over 91 min (10 sec ×6 frames, 30 sec ×6 frames, 1 min ×12 frames, and 3 min ×25 frames). PET scans were reconstructed using a filtered backprojection method in a 100×100 matrix, with a voxel size of 1.2 mm ×1.2 mm ×3.6 mm. Summed image of late phase (from 70 to 91 min post-injection) was calculated as a static SUV (activity/ml tissue)/(injected activity/g body weight) image. Each MRI was coregistered to an early (from 0 to 20 min) summed image using normalized mutual information, and ROIs were placed on the summed image with reference to the coregistered MRI. Three monkeys underwent [^11C]A-582941 scan morning, and then two of the three monkeys underwent [^11C]A-844606 afternoon (baseline). Within 6 months the last one of the three monkeys underwent two [^11C]A-844606 scans in the baseline (morning) and blocking (afternoon) conditions 30 min after injection of SSR180711 (5.0 mg/kg, i.v.), and the fourth monkey underwent two [^11C]A-582941 scans in the baseline and blocking conditions in the same way.
For the semi-quantitative analysis of PET data, arterial samples were obtained every 8 sec from injection to 64 sec, and then again at 1.5, 2.5, 4, 6, 10, 20, 30, 45, 60, and 90 min after each tracer injection. Blood samples were centrifuged to separate the plasma, weighed, and subjected to radioactivity measurement. For metabolite analysis, methanol was added to some plasma samples, the resulting solutions were centrifuged, and the supernatants were developed with TLC plates (AL SIL G/UV; Whatman, Kent, UK) using a mobile phase of dichloromethane/diethyl ether/ethanol/triethylamine (20/20/2/2, v/v/v/v). At each sampling time point, the ratio of radioactivity in the unmetabolized fraction to that in the total plasma (metabolite plus unmetabolite) was determined using a phosphoimaging plate (BAS-1500 MAC; Fuji Film Co., Tokyo, Japan). The pTACs corrected for metabolite were obtained. The tTACs in each region of interest (ROI) in the brain were calculated as the %ID/ml or as a standardized uptake value (SUV), (activity/ml tissue)/(injected activity/g body weight). Using the tTACs and the metabolite-corrected pTAC, the V T for each tracer was evaluated by Logan graphical analysis.

Chain of α7 nAChRs (Q866A2 23-502): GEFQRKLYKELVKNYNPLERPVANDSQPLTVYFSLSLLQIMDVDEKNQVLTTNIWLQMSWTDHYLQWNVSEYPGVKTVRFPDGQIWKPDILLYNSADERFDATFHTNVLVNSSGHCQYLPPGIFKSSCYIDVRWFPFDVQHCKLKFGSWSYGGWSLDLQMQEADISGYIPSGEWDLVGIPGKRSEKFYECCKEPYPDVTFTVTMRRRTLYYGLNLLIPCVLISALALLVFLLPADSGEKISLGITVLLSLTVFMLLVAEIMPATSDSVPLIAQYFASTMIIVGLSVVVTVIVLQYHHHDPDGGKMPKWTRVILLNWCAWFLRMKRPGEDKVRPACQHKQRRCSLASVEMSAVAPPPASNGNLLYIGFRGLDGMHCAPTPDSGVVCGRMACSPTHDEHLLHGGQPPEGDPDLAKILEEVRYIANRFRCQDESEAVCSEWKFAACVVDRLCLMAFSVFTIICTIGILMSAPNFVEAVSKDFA

## [11CH3]N1CC2CN(c3ccc(-c4ccccc4)nn3)CC2C1 (centres unmarked) [[^11C]A-582941, 2-[^11C]Methyl-5-[6-phenylpyridazine-3-yl]octahydropyrrolo[3,4-c]pyrrole]
[1]; 15 min after injection
  percentage of the unchanged form in the brain: 95.4±1.9%
  percentage of the unchanged form in the plasma: 40.5±7.1%
[1]; 30 min after injection
  percentage of the unchanged form in the brain: 97.4±0.8%
  percentage of the unchanged form in the plasma: 26.8±6.6% and 26.8%
α7 nAChRs; male
  V T Baseline, Cerebellum: 25.4 mL/g
  V T Baseline, Frontal cortex: 34.5 mL/g
  V T Baseline, Hippocampus: 31.6 mL/g
  V T Baseline, Thalamus: 34.0 mL/g
  V T SSR180711, Cerebellum: 17.3 mL/g
  V T SSR180711, Frontal cortex: 23.0 mL/g
  V T SSR180711, Hippocampus: 20.4 mL/g
  V T SSR180711, Thalamus: 23.6 mL/g
  V T, cerebellum (mean ± SD): 23.0±3.4
  V T, cerebellum (range): 18.0–25.4
  V T, frontal cortex (mean ± SD): 29.2±4.7
  V T, frontal cortex (range): 23.2–34.5
  V T, hippocampus (mean ± SD): 28.0±3.8
  V T, hippocampus (range): 22.8–31.6
  V T, thalamus (mean ± SD): 30.4±4.1
  V T, thalamus (range): 24.6–34.0
  time of peak radioactivity in the four brain regions (thalamus, frontal cortex, hippocampus, cerebellum): 10 min
α7 nAChRs
  % decrease of V T, Cerebellum: 32.0%
  % decrease of V T, Frontal cortex: 33.4%
  % decrease of V T, Hippocampus: 35.5%
  % decrease of V T, Thalamus: 30.5%
  decrease of V T by pretreatment with SSR180711: ~30%
